This is an account of results in patent US12247031B2, “Cyclobutyl pyrazolopyrimidine PDE9 inhibitors” (Merck Sharp & Dohme LLC, priority 2018, dated 2025).

This test addresses Human PDE9 (PDE9A2) (Homo sapiens (Human), UniProt O76083). The experiment in a line: PDE9 IMAP fluorescence polarization assay. Type of test: biochemical. Particulars: human PDE9A2, FAM-cGMP substrate 50 nM, IMAP FP, apparent inhibition constant. Here is the method: The activity of the compounds in accordance with the present invention as PDE9 inhibitors may be readily determined without undue experimentation using a fluorescence polarization (FP) methodology that is well known in the art (Huang, W., et al., J. Biomol Screen. 2002, 7: 215).
In a typical experiment the PDE9 inhibitory activity of the compounds of the present invention was determined in accordance with the following experimental method.
Human PDE9 (PDE9A2, GenBank Accession No. NM_001001567), full length with N-terminal GST tag, was purchased from BPS Bioscience. The fluorescence polarization assay for cyclic nucleotide phosphodiesterases was performed using an IMAP® FP kit supplied by Molecular Devices, Sunnyvale, CA (product #R8139). IMAP® technology has been applied previously to phosphodiesterase assays (Huang, W., et al., J. Biomol Screen. 2002, 7: 215).
Fluorescence polarization (mP) was calculated from the parallel (S) and perpendicular (P) fluorescence of each sample well and the analogous values for the median control well, containing only substrate (So and Po), using the following equation: Polarization (mP)=1000*(S/So−P/Po)/(S/So+P/Po).
Dose-inhibition profiles for each compound were characterized by fitting the mP data to a four-parameter equation given below. The apparent inhibition constant (KI), the maximum inhibition at the low plateau relative to “100% Inhibition Control” (Imax; e.g. 1=>same as this control), the minimum inhibition at the high plateau relative to the “0% Inhibition Control” (Imin, e.g. 0=>same as the no drug control) and the Hill slope (nH) are determined by a non-linear least squares fitting of the mP values as a function of dose of the compound using an in-house software based on the procedures described by Mosser et al., JALA. 2003, 8: 54-63, using the following equation: […]
Consider `C[C@@H](c1ccc(C(F)(F)F)nc1)n1nc(C#N)c2c(=O)[nH]c(C3CCC3c3ncccc3F)nc21` (single isomer, unassigned) [Example 16], for which the Ki was found to be 0.461 nM.

For `CC(C1CCOCC1)n1nc(C#N)c2c(=O)[nH]c(C3CCC3n3cccn3)nc21` (centres unmarked) [Example 40, 6-(2-(1H-pyrazol-1-yl)cyclobutyl)-4-oxo-1-(1-(tetrahydro-2H-pyran-4-yl)ethyl)-4,5-dihydro-1H-pyrazolo[3,4-d]pyrimidine-3-carbonitrile], the Ki came to 225 nM.

Take `CC(c1ccc(C(F)(F)F)nc1)n1nc(C#N)c2c(=O)[nH]c(C3CCC3n3cc(C#N)cn3)nc21` (single isomer, unassigned) [Example 24, 6-(2-(4-cyano-1H-pyrazol-1-yl)cyclobutyl)-4-oxo-1-(1-(6-(trifluoromethyl)pyridin-3-yl)ethyl)-4,5-dihydro-1H-pyrazolo[3,4-d]pyrimidine-3-carbonitrile]: the Ki came to 22.3 nM.

Regarding `CC(C1CCOCC1)n1nc(C#N)c2c(=O)[nH]c(C3CCC3n3cc(C#N)cn3)nc21` (centres unmarked) [Example 41, 6-(2-(4-cyano-1H-pyrazol-1-yl)cyclobutyl)-4-oxo-1-(1-(tetrahydro-2H-pyran-4-yl)ethyl)-4,5-dihydro-1H-pyrazolo[3,4-d]pyrimidine-3-carbonitrile], the Ki was determined as 608 nM.

As for `C[C@@H](c1ccc(C(F)(F)F)nc1)n1nc(C#N)c2c(=O)[nH]c(C3CCC3c3cc4n(n3)CCC4)nc21` (stereo partly drawn) [Example 12, 6-(2-(5,6-dihydro-4H-pyrrolo[1,2-b]pyrazol-2-yl)cyclobutyl)-4-oxo-1-((S)-1-(6-(trifluoromethyl)pyridin-3-yl)ethyl)-4,5-dihydro-1H-pyrazolo[3,4-d]pyrimidine-3-carbonitrile], the Ki came to 608 nM.

As to `Cc1nnc(C2CCC2c2nc3c(c(C#N)nn3C(C)c3ccc(C(F)(F)F)nc3)c(=O)[nH]2)o1` (single isomer, unassigned) [Example 2, 6-(2-(5-methyl-1,3,4-oxadiazol-2-yl)cyclobutyl)-4-oxo-1-(1-(6-(trifluoromethyl)pyridin-3-yl)ethyl)-4,5-dihydro-1H-pyrazolo[3,4-d]pyrimidine-3-carbonitrile], the Ki turned out to be 118 nM.

`Cc1nnc(C2CCC2c2nc3c(c(C#N)nn3C(C)c3ccc(C(F)(F)F)nc3)c(=O)[nH]2)o1` (single isomer, unassigned) [Example 1, 6-(2-(5-methyl-1,3,4-oxadiazol-2-yl)cyclobutyl)-4-oxo-1-(1-(6-(trifluoromethyl)pyridin-3-yl)ethyl)-4,5-dihydro-1H-pyrazolo[3,4-d]pyrimidine-3-carbonitrile]: the Ki worked out at 28.9 nM.

As to `Cc1nnc(C2CCC2c2nc3c(c(C#N)nn3C(C)c3ccc(C(F)(F)F)nc3)c(=O)[nH]2)o1` (single isomer, unassigned) [Example 5, 6-(2-(5-methyl-1,3,4-oxadiazol-2-yl)cyclobutyl)-4-oxo-1-(1-(6-(trifluoromethyl)pyridin-3-yl)ethyl)-4,5-dihydro-1H-pyrazolo[3,4-d]pyrimidine-3-carbonitrile], the Ki stood at 35 nM.

For the molecule `C[C@@H](c1ccc(C(F)(F)F)nc1)n1nc(C#N)c2c(=O)[nH]c(C3CCC3n3cc(F)cn3)nc21` (single isomer, unassigned) [Example 35], the Ki amounted to 0.402 nM.

Turning to `C[C@@H](c1ccc(C(F)(F)F)nc1)n1nc(C#N)c2c(=O)[nH]c(C3CCC3c3ccc(F)cn3)nc21` (single isomer, unassigned) [Example 13], the Ki came out at 608 nM.

Consider `C[C@@H](c1ccc(C(F)(F)F)nc1)n1nc(C#N)c2c(=O)[nH]c(C3CCC3n3ccc(C(F)(F)F)n3)nc21` (stereo partly drawn) [Example 32, 4-oxo-6-(2-(3-(trifluoromethyl)-1H-pyrazol-1-yl)cyclobutyl)-1-((S)-1-(6-(trifluoromethyl)pyridin-3-yl)ethyl)-4,5-dihydro-1H-pyrazolo[3,4-d]pyrimidine-3-carbonitrile], for which the Ki was 608 nM.

Consider `Cc1nnc(C2CCC2c2nc3c(c(C#N)nn3C(C)c3ccc(C(F)(F)F)nc3)c(=O)[nH]2)o1` (single isomer, unassigned) [Example 4, 6-(2-(5-methyl-1,3,4-oxadiazol-2-yl)cyclobutyl)-4-oxo-1-(1-(6-(trifluoromethyl)pyridin-3-yl)ethyl)-4,5-dihydro-1H-pyrazolo[3,4-d]pyrimidine-3-carbonitrile], for which the Ki came to 229 nM.

As for `C[C@@H](c1ccc(C(F)(F)F)nc1)n1nc(C#N)c2c(=O)[nH]c(C3CCC3n3cc(C(F)(F)F)cn3)nc21` (stereo partly drawn) [Example 31, 4-oxo-6-(2-(4-(trifluoromethyl)-1H-pyrazol-1-yl)cyclobutyl)-1-((S)-1-(6-(trifluoromethyl)pyridin-3-yl)ethyl)-4,5-dihydro-1H-pyrazolo[3,4-d]pyrimidine-3-carbonitrile], the Ki came out at 0.399 nM.

On to `C[C@@H](c1ccc(C(F)(F)F)nc1)n1nc(C#N)c2c(=O)[nH]c(C3CCC3n3cccn3)nc21` (single isomer, unassigned) [Example 36], for which the Ki was found to be 148 nM.

On to `CC(C1CCOCC1)n1nc(C#N)c2c(=O)[nH]c(C3CCC3n3cc(C#N)cn3)nc21` (single isomer, unassigned) [Example 48, 6-(2-(4-cyano-1H-pyrazol-1-yl)cyclobutyl)-4-oxo-1-(1-(tetrahydro-2H-pyran-4-yl)ethyl)-4,5-dihydro-1H-pyrazolo[3,4-d]pyrimidine-3-carbonitrile], for which the Ki was found to be 366 nM.

With `C[C@@H](c1ccc(C(F)(F)F)nc1)n1nc(C#N)c2c(=O)[nH]c(C3CCC3c3cncnc3)nc21` (stereo partly drawn) [Example 22, 4-oxo-6-(2-(pyrimidin-5-yl)cyclobutyl)-1-((S)-1-(6-(trifluoromethyl)pyridin-3-yl)ethyl)-4,5-dihydro-1H-pyrazolo[3,4-d]pyrimidine-3-carbonitrile], the Ki came out at 608 nM.

For the molecule `Cc1nnc(C2CCC2c2nc3c(c(C#N)nn3C(C)c3ccc(C(F)(F)F)nc3)c(=O)[nH]2)o1` (single isomer, unassigned) [Example 3, 6-(2-(5-methyl-1,3,4-oxadiazol-2-yl)cyclobutyl)-4-oxo-1-(1-(6-(trifluoromethyl)pyridin-3-yl)ethyl)-4,5-dihydro-1H-pyrazolo[3,4-d]pyrimidine-3-carbonitrile], the Ki came out at 221 nM.

Turning to `C[C@@H](c1ccc(C(F)(F)F)nc1)n1nc(C#N)c2c(=O)[nH]c(C3CCC3c3ccnn3C)nc21` (single isomer, unassigned) [Example 19], the Ki was found to be 0.145 nM.

Consider `C[C@@H](c1ccc(C(F)(F)F)nc1)n1nc(C#N)c2c(=O)[nH]c(C3CCC3c3ccn(C)n3)nc21` (single isomer, unassigned) [Example 17], for which the Ki was found to be 43.2 nM.

`C[C@@H](c1ccc(C(F)(F)F)nc1)n1nc(C#N)c2c(=O)[nH]c(C3CCC3n3cc(C(F)(F)F)cn3)nc21` (stereo partly drawn) [Example 43, 4-oxo-6-(2-(4-(trifluoromethyl)-1H-pyrazol-1-yl)cyclobutyl)-1-((S)-1-(6-(trifluoromethyl)pyridin-3-yl)ethyl)-4,5-dihydro-1H-pyrazolo[3,4-d]pyrimidine-3-carbonitrile]: the Ki came out at 4.75 nM.

Turning to `Cc1nnc(C2CCC2c2nc3c(c(C#N)nn3C(C)c3ccc(C(F)(F)F)nc3)c(=O)[nH]2)o1` (single isomer, unassigned) [Example 7, 6-(2-(5-methyl-1,3,4-oxadiazol-2-yl)cyclobutyl)-4-oxo-1-(1-(6-(trifluoromethyl)pyridin-3-yl)ethyl)-4,5-dihydro-1H-pyrazolo[3,4-d]pyrimidine-3-carbonitrile], the Ki came to 167 nM.

Turning to `C[C@@H](c1ccc(C(F)(F)F)nc1)n1nc(C#N)c2c(=O)[nH]c(C3CCC3c3ccccn3)nc21` (single isomer, unassigned) [Example 9], the Ki is 2.72 nM.

Take `CC(c1ccc(C(F)(F)F)nc1)n1nc(C#N)c2c(=O)[nH]c(C3CCC3n3ccc(C#N)n3)nc21` (single isomer, unassigned) [Example 26, 6-(2-(3-cyano-1H-pyrazol-1-yl)cyclobutyl)-4-oxo-1-(1-(6-(trifluoromethyl)pyridin-3-yl)ethyl)-4,5-dihydro-1H-pyrazolo[3,4-d]pyrimidine-3-carbonitrile]: the Ki came out at 96.1 nM.

For the molecule `C[C@@H](c1ccc(C(F)(F)F)nc1)n1nc(C#N)c2c(=O)[nH]c(C3CCC3n3cc(F)cn3)nc21` (single isomer, unassigned) [Example 34], the Ki came to 5.9 nM.

With `C[C@@H](c1ccc(C(F)(F)F)nc1)n1nc(C#N)c2c(=O)[nH]c(C3CCC3c3ccccn3)nc21` (single isomer, unassigned) [Example 8], the Ki worked out at 0.034 nM.

For `CC(c1ccc(C(F)(F)F)nc1)n1nc(C#N)c2c(=O)[nH]c(C3CCC3N3CCOCC3=O)nc21` (centres unmarked) [Example 30, 4-oxo-6-(2-(3-oxomorpholino)cyclobutyl)-1-(1-(6-(trifluoromethyl)pyridin-3-yl)ethyl)-4,5-dihydro-1H-pyrazolo[3,4-d]pyrimidine-3-carbonitrile], the Ki worked out at 608 nM.
